In patent publication US9814761B2, “Compositions, methods and assays comprising amylin or amlyin analogs for abeta-peptide mediated disorders” (TRUSTEES OF BOSTON UNIVERSITY, priority 2012, dated 2017):
Entries after “also recorded” stand apart in the source; their conditions may differ. One block for each compound: values may come before it.

How the values were obtained:
[1] = biological target: T1, IDE (insulin degrading enzyme) (Mus musculus, UniProt Q9JHR7); test: pre-treatment with IDE inhibitor followed by amylin challenge, serum Aβ; format: in vivo; details: Tg2576 mice pre-treated with 1-10 phenonthrolin, then amylin challenge
T1 construct: endogenous in cells; host or cells: Tg2576 (APP transgenic) mice, whole animal, i.p. dosing
T1 sequence (Q9JHR7 1-1019): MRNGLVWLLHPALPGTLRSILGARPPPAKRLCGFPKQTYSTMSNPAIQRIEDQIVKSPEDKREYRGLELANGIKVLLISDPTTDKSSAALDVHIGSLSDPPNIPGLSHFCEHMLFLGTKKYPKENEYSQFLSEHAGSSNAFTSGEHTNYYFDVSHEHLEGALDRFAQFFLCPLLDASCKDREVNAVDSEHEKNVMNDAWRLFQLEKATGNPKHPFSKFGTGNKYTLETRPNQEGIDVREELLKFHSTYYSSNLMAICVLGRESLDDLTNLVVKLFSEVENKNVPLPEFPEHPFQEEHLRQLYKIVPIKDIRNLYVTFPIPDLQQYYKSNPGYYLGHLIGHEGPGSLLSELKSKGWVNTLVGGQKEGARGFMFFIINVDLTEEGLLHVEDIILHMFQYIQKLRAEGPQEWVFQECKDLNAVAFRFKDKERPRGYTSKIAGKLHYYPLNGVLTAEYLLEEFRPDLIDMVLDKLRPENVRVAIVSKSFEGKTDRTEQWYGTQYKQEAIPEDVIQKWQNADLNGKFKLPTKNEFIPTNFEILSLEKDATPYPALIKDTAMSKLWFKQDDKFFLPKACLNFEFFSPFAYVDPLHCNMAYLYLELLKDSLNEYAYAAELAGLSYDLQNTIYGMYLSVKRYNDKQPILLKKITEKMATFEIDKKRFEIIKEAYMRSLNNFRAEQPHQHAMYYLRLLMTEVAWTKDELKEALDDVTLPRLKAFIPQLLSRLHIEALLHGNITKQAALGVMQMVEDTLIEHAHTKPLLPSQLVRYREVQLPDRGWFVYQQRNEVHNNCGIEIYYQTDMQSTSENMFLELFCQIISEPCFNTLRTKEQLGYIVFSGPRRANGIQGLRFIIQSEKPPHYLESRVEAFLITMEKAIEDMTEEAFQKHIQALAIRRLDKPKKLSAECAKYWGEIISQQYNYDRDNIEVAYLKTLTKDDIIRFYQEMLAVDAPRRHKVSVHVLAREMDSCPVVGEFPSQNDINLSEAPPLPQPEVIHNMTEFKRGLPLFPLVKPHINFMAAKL
Procedure: Tg2576 mice were used for the amylin challenge test. The mice received blood draws before any treatment. Then the mice had intraperitoneally injection (i.p) of PBS, AC253 (amylin receptor antagonist) or 1,10-phenonthrolin (IDE inhibitor) and received another blood draw 24 hrs post the treatment followed by i.p amylin (20 mg/kg). The final blood draw was conducted after 24 hrs post i.p amylin. Serum Aβ1-40 (5A) and Aβ1-42 (5B) were measured by using the ELISA assays. The levels of serum Aβ1-40 and Aβ1-42 at pre-injection of amylin were treated as 1 s, and the relative fold increases with different treatments were calculated and compared with the pre-injection level by using two-way ANOVA. P values for statistical significance are shown.
As amylin and Aβ are degraded by the same protease, IDE, we next pre-treated the Tg2576 mice with 1-10 phenonthrolin, a metalloprotease inhibitor to inhibit the activity of IDE, followed by the amylin challenge. It was next tested whether CTR/RAMP3 and IDE form a complex in this process to regulate Aβ in the brain. […] Another experiment with IDE immunoprecipitation and then RAMP3 western blot also illustrated the complex.

[2] = tested on: plasma Aβ1-40 and Aβ1-42; test: pramlintide challenge in two human subjects, plasma Aβ1-40 and Aβ1-42; format: in vivo; details: pramlintide 60 mcg s.c.
Procedure: (§1) Subcutaneous injections of one dose of pramlintide (60 mcg) was performed in two subjects followed in the research registry of the BU ADC, one control and one probable Alzheimer's disease. Blood was drawn to collect plasma samples before the injection and at 5, 30, 60 and 180 minutes after the injection. Vital signs and blood glucose were monitored at these time points and prior to discharge of the subject from the facility. One hour after the injection, the subjects were offered a standard meal. Plasma Aβ1-40 and Aβ1-42 were measured (Table 2). […] The human results provided herein are encouraging, in part, because the dose of pramlintide (60 mcg) used was only moderate.

[3] = blood (stick) glucose monitored after pramlintide injection in two human subjects; format: in vivo; details: pramlintide 60 mcg s.c.
Procedure: as §1

[4] = tested on: mouse models; test: daily dosing in mouse models, memory functions; format: in vivo, mice

- surges of serum Aβ at 24 hrs post the peripheral injection of amylin [1]: completely blocked
SMILES: c1cnc2c(c1)ccc1cccnc12 [1-10 phenonthrolin, 1,10-phenonthrolin]

- Glucose ([3]; AD subject, post 5', pre-injection 85): 91 mg/dL
- Glucose ([3]; AD subject, post 30', pre-injection 85): 88 mg/dL
- Glucose ([3]; AD subject, post 60', pre-injection 85, standard meal offered one hour after injection): 135 mg/dL
- Glucose ([3]; AD subject, post 180', pre-injection 85, standard meal offered one hour after injection): 115 mg/dL
- Glucose ([3]; control subject, post 5', pre-injection 115): 108 mg/dL
- Glucose ([3]; control subject, post 30', pre-injection 115): 115 mg/dL
- Glucose ([3]; control subject, post 60', pre-injection 115, standard meal offered one hour after injection): 114 mg/dL
- Glucose ([3]; control subject, post 180', pre-injection 115, standard meal offered one hour after injection): 149 mg/dL
SMILES: CC[C@H](C)[C@H](NC(=O)[C@@H]1CCCN1C(=O)CNC(=O)[C@H](Cc1ccccc1)NC(=O)[C@H](CC(N)=O)NC(=O)[C@H](CC(N)=O)NC(=O)[C@H](CO)NC(=O)[C@H](CO)NC(=O)[C@H](Cc1c[nH]cn1)NC(=O)[C@@H](NC(=O)[C@H](CC(C)C)NC(=O)[C@H](Cc1ccccc1)NC(=O)[C@H](CC(N)=O)NC(=O)[C@H](C)NC(=O)[C@H](CC(C)C)NC(=O)[C@H](CCCNC(=N)N)NC(=O)[C@H](CCC(N)=O)NC(=O)[C@@H](NC(=O)[C@H](C)NC(=O)[C@@H]1CSSC[C@H](NC(=O)[C@@H](N)CCCCN)C(=O)N[C@@H](CC(N)=O)C(=O)N[C@@H]([C@@H](C)O)C(=O)N[C@@H](C)C(=O)N[C@@H]([C@@H](C)O)C(=O)N1)[C@@H](C)O)C(C)C)C(=O)N[C@@H](CC(C)C)C(=O)N1CCC[C@H]1C(=O)N1CCC[C@H]1C(=O)N[C@H](C(=O)N[C@@H](CC(N)=O)C(=O)N[C@H](C(=O)NCC(=O)N[C@@H](CO)C(=O)N[C@@H](CC(N)=O)C(=O)N[C@H](C(=O)N[C@@H](Cc1ccc(O)cc1)C(N)=O)[C@@H](C)O)C(C)C)[C@@H](C)O [pramlintide]
- plasma Aβ1-42 ([2]; AD subject, post 5', pre-injection 27.0): 29.0 pg/mL
- plasma Aβ1-40 ([2]; AD subject, post 5', pre-injection 180.6): 160.8 pg/mL
- plasma Aβ1-42 ([2]; AD subject, post 30', pre-injection 27.0): 31.8 pg/mL
- plasma Aβ1-40 ([2]; AD subject, post 30', pre-injection 180.6): 161.0 pg/mL
- plasma Aβ1-42 ([2]; AD subject, post 60', pre-injection 27.0): 26.6 pg/mL
- plasma Aβ1-40 ([2]; AD subject, post 60', pre-injection 180.6): 129.4 pg/mL
- plasma Aβ1-42 ([2]; AD subject, post 180', pre-injection 27.0): 22.0 pg/mL
- plasma Aβ1-40 ([2]; AD subject, post 180', pre-injection 180.6): 104.6 pg/mL
- plasma Aβ1-42 ([2]; control subject, post 5', pre-injection 29.9): 26.0 pg/mL
- plasma Aβ1-40 ([2]; control subject, post 5', pre-injection 148.4): 178.4 pg/mL
- plasma Aβ1-42 ([2]; control subject, post 30', pre-injection 29.9): 27.5 pg/mL
- plasma Aβ1-40 ([2]; control subject, post 30', pre-injection 148.4): 150.4 pg/mL
- plasma Aβ1-42 ([2]; control subject, post 60', pre-injection 29.9): 21.7 pg/mL
- plasma Aβ1-40 ([2]; control subject, post 60', pre-injection 148.4): 110.5 pg/mL
- plasma Aβ1-42 ([2]; control subject, post 180', pre-injection 29.9): 10.6 pg/mL
- plasma Aβ1-40 ([2]; control subject, post 180', pre-injection 148.4): 100.8 pg/mL
- memory functions / cognition [4]: increased memory functions; also recorded: led to cognitive improvements
